What was measured:
Format in all cases: in vivo
CES3 [1] = experiment: CES3 expression in Fuzzy rat epidermal split after 8 days of topical treatment, Affymetrix transcriptome analysis; conditions: topical 1% once a day for 8 days, female FUZZY rat
Description: The studies are carried out in female Fuzzy rats (Hsd: FUZZY-fz) 10 weeks old at the beginning of the study. The animals are treated at a dose of 1% (PPARg agonist Rosiglitazone in solution in acetone) once a day for 8 days. Two hours after the final treatment, the animals are sacrificed by euthanasia and the skin on the back is removed. After incubation in […], the epidermis carrying the sebaceous glands is detached from the dermis (epidermal split). After grinding of the samples, the mRNA is prepared using Qiagen columns, in accordance with the suppliers' instructions. The material thus prepared is subjected to large-scale transcriptome analysis on an Affymetrix platform. The data are subsequently standardized and, after statistical analysis, the results produced are expressed in arbitrary expression units (see below) accompanied, for each piece of data, by a statistical value for presence of the transcript (presence=1; absence=0).

CES1 = CES1 gene expression in rat sebaceous gland (epidermal split) after topical PPARgamma agonist, real-time PCR; conditions: topical 1% in acetone, female FUZZY rat, mRNA standardized to 18S, versus carrier group; for CES1 Relative induction - kinetics (hours): 0: 0 hours; for CES1 Relative induction - kinetics (hours): 8: 8 hours; for CES1 Relative induction - kinetics (hours): 24: 24 hours; for CES1 Relative induction - kinetics (hours): 48: 48 hours; for CES1 Relative induction - kinetics (hours): 96: 96 hours
Source text: (§1) Materials and methods: • Animals: Species: rat • Strain: Ico:HSd:FUZZY-fz • Gender: female • Age: 10 weeks • Number per batch: 40 (8 animals per group) • Treatment: Route of administration: topical • Compound/batch: PPARgamma agonists: • A: 5-{4-[2-(methylpyridin-2-ylamino)ethoxy]benzyl}thiazolidine-2,4-dione • B: 2-(methoxyethoxymethoxy)naphthalene-2-carboxylic acid [4′-(2,4-dioxothiazolidin-5-ylmethyl)biphenyl-3-ylmethyl]methylamide […] • C: (S)-2-ethoxy-3-{4-[6-(3-heptyl-1-methylureido)pyridin-2-yl]phenyl}propionic acid • Doses: 1% • Carrier: acetone (001) • Duration: 96 hours Method of evaluation: The animals are weighed at the beginning and at the end of the study. Skin biopsies are taken (6 samples of skin excised per rat) in order to analyze the expression of the genes (RNA extraction, reverse transcriptase and real-time PCR). The samples are stored at 4° C. overnight before incubation in 1 M sodium bromide (NaBr) for 2 hours at 37° C. After incubation, the samples are separated into epidermis or dermis. The epidermal samples are stored at 20° C. Under these conditions, the sebaceous glands are in the epidermal split. PCRs are carried out, beginning with the cDNAs originating from the epidermal splits containing sebaceous glands from control rats or rats treated with a PPARγ agonist: the mRNA is extracted using a column and quantified. The quality of the mRNAs is measured and is represented by the 18S/28S ratio. The results are standardized with respect to 18S, expressed as relative induction versus untreated animals (carrier group). The statistical analysis is obtained using internal software based on a modified Monte Carlo statistical analysis.

CES3 [2] = experiment: CES3 gene expression in rat sebaceous gland (epidermal split) after topical PPARgamma agonist, real-time PCR; conditions: topical 1% in acetone, female FUZZY rat, mRNA standardized to 18S, versus carrier group; for CES3 Relative induction - kinetics (hours): 0: 0 hours; for CES3 Relative induction - kinetics (hours): 8: 8 hours; for CES3 Relative induction - kinetics (hours): 24: 24 hours; for CES3 Relative induction - kinetics (hours): 48: 48 hours; for CES3 Relative induction - kinetics (hours): 96: 96 hours
Source text: as §1, with “Ico:Hsd FUZZY-fz” for “Ico:HSd:FUZZY-fz”

SMILES | Significance of the expression after treatment with 1% Rosiglitazone (presence =1, absence =0) (CES3 [1]; control condition 1) | Expression after treatment with 1% Rosiglitazone (CES3, 1370363_at) (CES3 [1]; control condition 443) | CES1 Relative induction - kinetics (hours): 0 (CES1) | CES1 Relative induction - kinetics (hours): 8 (CES1) | CES1 Relative induction - kinetics (hours): 24 (CES1) | CES1 Relative induction - kinetics (hours): 48 (CES1) | CES1 Relative induction - kinetics (hours): 96 (CES1) | CES3 Relative induction - kinetics (hours): 0 (CES3 [2]) | CES3 Relative induction - kinetics (hours): 8 (CES3 [2]) | CES3 Relative induction - kinetics (hours): 24 (CES3 [2]) | CES3 Relative induction - kinetics (hours): 48 (CES3 [2]) | CES3 Relative induction - kinetics (hours): 96 (CES3 [2])
CN(CCOc1ccc(CC2SC(=O)NC2=O)cc1)c1ccccn1 (stereo not shown) [Rosiglitazone] | 0 | 15 arbitrary expression units |  |  |  |  |  |  |  |  |  | 
CCCCCCCNC(=O)N(C)c1cccc(-c2ccc(C[C@H](OCC)C(=O)O)cc2)n1 [C, (S)-2-ethoxy-3-{4-[6-(3-heptyl-1-methylureido)pyridin-2-yl]phenyl}propionic acid] |  |  | 1 | 0.55 | 0.38 | 0.04 | 0.03 | 1 | 0.33 | 0.12 | 0.02 | 0.00
CN(CCOc1ccc(CC2SC(=O)NC2=O)cc1)c1ccccn1 (stereo not shown) [A, 5-{4-[2-(methylpyridin-2-ylamino)ethoxy]benzyl}thiazolidine-2,4-dione] |  |  | 1 | 1.93 | 1.01 | 0.45 | 0.13 | 1 | 1.72 | 0.46 | 0.22 | 0.07

Reference: patent US20110150774A1, “SCREENING FOR MODULATORS OF CES1 AND/OR CES3 FOR THE TREATMENT OF ACNE, OF SEBORRHOEIC DERMATITIS OR OF HYPERSEBORRHOEA” (GALDERMA RESEARCH & DEVELOPMENT, priority 2008, published 2011)
